The target of one experiment is T1, Ephrin type-B receptor 6 (Homo sapiens, UniProt O15197).
T1 sequence (O15197 whole entry): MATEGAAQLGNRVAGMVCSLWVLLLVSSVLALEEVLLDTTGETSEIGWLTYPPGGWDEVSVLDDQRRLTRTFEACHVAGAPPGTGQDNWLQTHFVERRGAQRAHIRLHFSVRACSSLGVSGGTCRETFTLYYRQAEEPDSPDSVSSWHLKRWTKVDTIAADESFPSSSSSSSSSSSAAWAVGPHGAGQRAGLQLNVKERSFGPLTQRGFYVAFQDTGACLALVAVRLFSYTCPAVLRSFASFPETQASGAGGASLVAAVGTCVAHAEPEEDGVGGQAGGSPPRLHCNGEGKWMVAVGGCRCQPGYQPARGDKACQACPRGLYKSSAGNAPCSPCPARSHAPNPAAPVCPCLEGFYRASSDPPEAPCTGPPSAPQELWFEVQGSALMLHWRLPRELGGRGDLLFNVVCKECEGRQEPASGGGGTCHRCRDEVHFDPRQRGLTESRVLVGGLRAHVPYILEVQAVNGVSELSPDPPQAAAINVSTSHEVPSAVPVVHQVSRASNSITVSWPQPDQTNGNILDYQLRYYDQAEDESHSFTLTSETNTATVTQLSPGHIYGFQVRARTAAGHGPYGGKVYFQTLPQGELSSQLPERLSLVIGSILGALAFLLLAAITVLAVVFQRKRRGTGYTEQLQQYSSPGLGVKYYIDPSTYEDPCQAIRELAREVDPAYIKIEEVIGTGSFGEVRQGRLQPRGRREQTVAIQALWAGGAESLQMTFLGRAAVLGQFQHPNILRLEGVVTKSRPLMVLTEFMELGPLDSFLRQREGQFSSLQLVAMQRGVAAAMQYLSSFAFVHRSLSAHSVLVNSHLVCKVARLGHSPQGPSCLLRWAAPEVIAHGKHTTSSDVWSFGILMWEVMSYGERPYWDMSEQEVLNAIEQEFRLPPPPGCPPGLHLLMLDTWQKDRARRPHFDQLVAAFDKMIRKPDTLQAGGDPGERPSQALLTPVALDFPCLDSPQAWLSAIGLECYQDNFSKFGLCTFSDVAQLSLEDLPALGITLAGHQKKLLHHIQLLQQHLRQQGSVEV
The experiment is described as follows: Binding affinity to human wild type partial length EphB6 (Q634 to P948 residues) expressed in mammalian expression system by Kinomescan method.

The target in experiment [1] is Bone morphogenetic protein receptor type-1B (Homo sapiens, UniProt O00238). The experiment is described as follows: Binding affinity to human wild type partial length BMPR1B (D178 to L502 residues) expressed in mammalian expression system by Kinomescan method.
For experiment [2], the target named is T2, Tyrosine-protein kinase ABL1 (Homo sapiens, UniProt P00519). The experiment is described as follows: Binding affinity to human wild type partial length phosphorylated ABL1 (S229 to K512 residues) expressed in mammalian expression system by Kinomescan method.
T2 sequence (P00519 whole entry, the tested form may be a part): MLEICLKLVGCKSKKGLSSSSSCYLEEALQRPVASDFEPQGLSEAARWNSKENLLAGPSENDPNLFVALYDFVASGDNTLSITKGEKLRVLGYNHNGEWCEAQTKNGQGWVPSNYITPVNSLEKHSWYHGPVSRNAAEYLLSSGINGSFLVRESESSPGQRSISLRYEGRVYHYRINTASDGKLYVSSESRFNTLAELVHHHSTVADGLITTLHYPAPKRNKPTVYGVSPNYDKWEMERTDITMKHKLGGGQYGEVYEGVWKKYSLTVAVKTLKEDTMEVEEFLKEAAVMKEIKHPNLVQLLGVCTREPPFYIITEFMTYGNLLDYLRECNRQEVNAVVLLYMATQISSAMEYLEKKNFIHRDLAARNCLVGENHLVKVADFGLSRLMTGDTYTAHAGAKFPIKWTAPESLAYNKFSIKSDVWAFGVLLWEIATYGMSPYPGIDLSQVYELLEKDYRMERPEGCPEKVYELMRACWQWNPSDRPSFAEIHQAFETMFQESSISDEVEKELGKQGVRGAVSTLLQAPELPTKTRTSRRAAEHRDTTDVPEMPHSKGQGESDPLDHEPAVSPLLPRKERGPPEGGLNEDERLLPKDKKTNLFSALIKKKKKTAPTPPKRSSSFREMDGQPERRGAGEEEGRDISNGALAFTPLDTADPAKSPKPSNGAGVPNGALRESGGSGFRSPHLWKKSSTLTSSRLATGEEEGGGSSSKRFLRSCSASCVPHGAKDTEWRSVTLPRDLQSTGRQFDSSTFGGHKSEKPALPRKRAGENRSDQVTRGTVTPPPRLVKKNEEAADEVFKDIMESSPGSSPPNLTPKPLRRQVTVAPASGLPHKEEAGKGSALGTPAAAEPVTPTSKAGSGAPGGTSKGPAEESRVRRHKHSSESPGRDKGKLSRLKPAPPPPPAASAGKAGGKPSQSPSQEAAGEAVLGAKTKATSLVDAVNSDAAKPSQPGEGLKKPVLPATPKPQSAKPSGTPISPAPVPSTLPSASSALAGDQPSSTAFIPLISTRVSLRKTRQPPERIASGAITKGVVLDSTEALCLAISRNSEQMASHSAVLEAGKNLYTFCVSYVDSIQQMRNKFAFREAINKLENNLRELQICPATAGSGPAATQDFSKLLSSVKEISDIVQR
Experiment [3] has as its target T3, Cyclin-G-associated kinase (Homo sapiens, UniProt O14976).
T3 sequence (O14976 whole entry): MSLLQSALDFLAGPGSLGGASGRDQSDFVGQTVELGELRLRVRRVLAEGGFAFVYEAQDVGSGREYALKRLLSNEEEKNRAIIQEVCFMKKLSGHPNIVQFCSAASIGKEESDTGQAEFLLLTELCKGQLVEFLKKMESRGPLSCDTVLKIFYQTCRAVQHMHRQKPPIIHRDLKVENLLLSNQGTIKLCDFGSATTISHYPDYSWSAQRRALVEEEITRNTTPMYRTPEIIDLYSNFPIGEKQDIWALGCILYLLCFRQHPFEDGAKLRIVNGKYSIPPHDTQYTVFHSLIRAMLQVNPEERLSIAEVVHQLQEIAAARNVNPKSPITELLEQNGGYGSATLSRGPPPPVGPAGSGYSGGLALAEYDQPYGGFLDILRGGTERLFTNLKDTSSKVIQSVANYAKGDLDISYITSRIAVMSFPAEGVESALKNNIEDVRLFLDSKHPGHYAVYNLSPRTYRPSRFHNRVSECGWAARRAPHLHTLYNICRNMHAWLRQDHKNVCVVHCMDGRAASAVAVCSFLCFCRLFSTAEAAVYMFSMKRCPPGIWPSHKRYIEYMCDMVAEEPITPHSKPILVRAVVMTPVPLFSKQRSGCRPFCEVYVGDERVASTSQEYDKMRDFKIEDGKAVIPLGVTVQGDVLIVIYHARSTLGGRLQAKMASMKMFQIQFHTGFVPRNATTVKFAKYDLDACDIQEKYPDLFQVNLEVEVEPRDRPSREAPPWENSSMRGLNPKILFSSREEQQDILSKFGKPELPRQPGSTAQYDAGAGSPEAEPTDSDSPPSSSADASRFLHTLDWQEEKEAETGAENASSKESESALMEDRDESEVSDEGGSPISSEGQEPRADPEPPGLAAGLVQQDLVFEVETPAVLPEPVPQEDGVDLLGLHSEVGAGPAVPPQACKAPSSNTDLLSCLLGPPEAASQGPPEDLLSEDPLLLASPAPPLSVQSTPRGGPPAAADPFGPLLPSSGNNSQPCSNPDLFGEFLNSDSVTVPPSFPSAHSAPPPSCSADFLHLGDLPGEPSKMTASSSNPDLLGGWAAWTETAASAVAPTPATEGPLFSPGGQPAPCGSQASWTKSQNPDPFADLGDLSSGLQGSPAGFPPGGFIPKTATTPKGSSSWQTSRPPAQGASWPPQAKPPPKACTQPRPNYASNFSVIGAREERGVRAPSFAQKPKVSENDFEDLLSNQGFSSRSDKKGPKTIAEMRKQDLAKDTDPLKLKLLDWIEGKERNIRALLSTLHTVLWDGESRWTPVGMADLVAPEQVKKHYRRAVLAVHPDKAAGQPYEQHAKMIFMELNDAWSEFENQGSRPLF
The experiment is described as follows: Binding affinity to human wild type partial length GAK (G13 to Y338 residues) expressed in bacterial expression system by KinomeScan method.

In experiment [4] the target is Receptor-interacting serine/threonine-protein kinase 2 (Homo sapiens, UniProt O43353). The experiment is described as follows: Binding affinity to wild-type human partial length RIPK2 (M1 to K310 residues) expressed in bacterial expression system by Kinomescan method.
A further experiment has as its target Activin receptor type-1 (Homo sapiens, UniProt Q04771). The experiment is described as follows: Binding affinity to human wild type partial length ACVR1 (C188 to C509 residues) expressed in bacterial expression system by Kinomescan method.
For a further experiment, the target named is Ephrin type-A receptor 1 (Homo sapiens, UniProt P21709). The experiment is described as follows: Binding affinity to human wild type partial length EphA1 (V588 to I913 residues) expressed in bacterial expression system by Kinomescan method.
Chain of Ephrin type-A receptor 1 (P21709 whole entry, the tested form may be a part): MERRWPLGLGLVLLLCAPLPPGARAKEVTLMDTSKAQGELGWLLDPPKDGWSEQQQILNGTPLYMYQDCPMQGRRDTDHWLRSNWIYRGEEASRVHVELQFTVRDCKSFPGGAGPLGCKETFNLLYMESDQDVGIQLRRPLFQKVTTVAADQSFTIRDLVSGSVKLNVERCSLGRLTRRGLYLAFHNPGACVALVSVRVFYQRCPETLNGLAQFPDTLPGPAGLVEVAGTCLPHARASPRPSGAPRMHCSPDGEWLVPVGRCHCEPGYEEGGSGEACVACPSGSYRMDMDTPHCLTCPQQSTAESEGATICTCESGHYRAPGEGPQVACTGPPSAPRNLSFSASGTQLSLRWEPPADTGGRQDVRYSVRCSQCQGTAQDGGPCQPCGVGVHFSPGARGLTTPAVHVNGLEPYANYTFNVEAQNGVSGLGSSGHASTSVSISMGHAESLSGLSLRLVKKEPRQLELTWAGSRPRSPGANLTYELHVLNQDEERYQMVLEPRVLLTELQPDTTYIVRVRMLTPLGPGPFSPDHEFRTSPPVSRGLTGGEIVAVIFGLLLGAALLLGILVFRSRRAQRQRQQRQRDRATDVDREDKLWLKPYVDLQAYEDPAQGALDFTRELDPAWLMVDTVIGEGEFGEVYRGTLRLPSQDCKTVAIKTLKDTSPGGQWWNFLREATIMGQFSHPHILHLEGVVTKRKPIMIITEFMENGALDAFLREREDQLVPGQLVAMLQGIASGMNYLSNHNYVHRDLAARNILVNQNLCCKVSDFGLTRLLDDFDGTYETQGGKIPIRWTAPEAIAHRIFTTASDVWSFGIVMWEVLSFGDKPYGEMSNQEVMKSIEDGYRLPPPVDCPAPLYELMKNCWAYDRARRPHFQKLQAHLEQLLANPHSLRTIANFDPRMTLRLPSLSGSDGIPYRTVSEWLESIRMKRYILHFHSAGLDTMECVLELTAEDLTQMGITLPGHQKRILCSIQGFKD
Experiment [5] has as its target Tyrosine-protein kinase Lck (Homo sapiens, UniProt P06239). The experiment is described as follows: Binding affinity to wild-type human partial length LCK (R207 to P509 residues) expressed in bacterial expression system by Kinomescan method.
For experiment [6], the target named is T2, Tyrosine-protein kinase ABL1. The experiment is described as follows: Binding affinity to human wild type partial length non-phosphorylated ABL1 (S229 to K512 residues) expressed in mammalian expression system by Kinomescan method.
The next experiment has as its target Ephrin type-A receptor 8 (Homo sapiens, UniProt P29322). The experiment is described as follows: Binding affinity to human wild type partial length EphA8 (Q608 to C920 residues) expressed in bacterial expression system by Kinomescan method.
Experiment [7] deals with Dual specificity mitogen-activated protein kinase kinase 5 (Homo sapiens, UniProt Q13163). The experiment is described as follows: Binding affinity to human wild type partial length MEK5 (L98 to P448 residues) expressed in mammalian expression system by Kinomescan method.
Experiment [8] deals with T3, Cyclin-G-associated kinase. The experiment is described as follows: Inhibition of GAK (unknown origin) by in-cell pulse based assay.
Experiment [9] addresses Interleukin-1 receptor-associated kinase 3 (Homo sapiens, UniProt Q9Y616). The experiment is described as follows: Binding affinity to human wild type partial length IRAK3 (V147 to E596 residues) expressed in bacterial expression system by Kinomescan method.
Experiment [10] concerns the target Tyrosine-protein kinase TXK (Homo sapiens, UniProt P42681). The experiment in a line: Binding affinity to wild-type human partial length TXK (L238 to W527 residues) expressed in bacterial expression system by Kinomescan method.
Experiment [11] concerns the target Serine/threonine-protein kinase NLK (Homo sapiens, UniProt Q9UBE8). The experiment in a line: Binding affinity to wild-type human full length NLK expressed in bacterial expression system by Kinomescan method.
Experiment [12] concerns the target RAF proto-oncogene serine/threonine-protein kinase (Homo sapiens) (UniProt P04049). The experiment in a line: Inhibition of human wild type partial length C-Raf (I330 to T640 residues) expressed in bacterial expression system at 1 uM by Kinomescan method relative to control.
Experiment [13] addresses Atypical kinase COQ8A, mitochondrial (Homo sapiens, UniProt Q8NI60). The experiment in a line: Binding affinity to human wild type full-length ADCK3 expressed in bacterial expression system by Kinomescan method.

We go through 13 compounds from ChEMBL document CHEMBL4665659, “Utilizing comprehensive and mini-kinome panels to optimize the selectivity of quinoline inhibitors for cyclin G associated kinase (GAK)” (Bioorg Med Chem Lett, 2019).

Where only a bound is given, the exact number is not on record here.

Chain of Tyrosine-protein kinase Lck (P06239 whole entry, the tested form may be a part): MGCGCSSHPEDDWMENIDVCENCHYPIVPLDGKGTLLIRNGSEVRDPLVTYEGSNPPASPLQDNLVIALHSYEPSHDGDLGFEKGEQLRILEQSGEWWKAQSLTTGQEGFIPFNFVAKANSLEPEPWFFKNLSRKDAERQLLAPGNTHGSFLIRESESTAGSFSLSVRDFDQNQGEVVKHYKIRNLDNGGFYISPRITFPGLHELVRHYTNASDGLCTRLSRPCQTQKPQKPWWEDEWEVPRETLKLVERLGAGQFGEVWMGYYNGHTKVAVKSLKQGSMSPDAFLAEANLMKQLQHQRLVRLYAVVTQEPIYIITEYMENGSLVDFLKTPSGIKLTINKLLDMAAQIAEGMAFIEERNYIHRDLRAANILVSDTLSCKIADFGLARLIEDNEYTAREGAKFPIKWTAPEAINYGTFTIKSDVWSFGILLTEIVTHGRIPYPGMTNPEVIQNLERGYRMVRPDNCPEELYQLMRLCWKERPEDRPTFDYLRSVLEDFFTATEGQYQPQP
Chain of Activin receptor type-1 (Q04771 whole entry, the tested form may be a part): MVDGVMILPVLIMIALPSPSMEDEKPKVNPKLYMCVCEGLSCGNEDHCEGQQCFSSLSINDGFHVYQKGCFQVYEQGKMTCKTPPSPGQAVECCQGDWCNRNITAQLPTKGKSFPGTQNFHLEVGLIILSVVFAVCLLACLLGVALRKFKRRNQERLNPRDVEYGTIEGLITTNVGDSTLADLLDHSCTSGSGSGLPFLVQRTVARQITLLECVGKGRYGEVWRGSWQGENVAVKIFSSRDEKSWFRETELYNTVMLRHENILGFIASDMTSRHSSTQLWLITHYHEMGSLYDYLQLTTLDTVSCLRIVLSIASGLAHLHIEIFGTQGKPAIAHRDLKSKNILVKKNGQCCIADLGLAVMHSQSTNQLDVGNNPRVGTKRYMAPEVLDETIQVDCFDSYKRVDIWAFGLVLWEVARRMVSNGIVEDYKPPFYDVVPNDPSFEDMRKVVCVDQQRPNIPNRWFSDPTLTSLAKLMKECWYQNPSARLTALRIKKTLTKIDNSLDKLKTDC
Chain of Ephrin type-A receptor 8 (P29322 whole entry, the tested form may be a part): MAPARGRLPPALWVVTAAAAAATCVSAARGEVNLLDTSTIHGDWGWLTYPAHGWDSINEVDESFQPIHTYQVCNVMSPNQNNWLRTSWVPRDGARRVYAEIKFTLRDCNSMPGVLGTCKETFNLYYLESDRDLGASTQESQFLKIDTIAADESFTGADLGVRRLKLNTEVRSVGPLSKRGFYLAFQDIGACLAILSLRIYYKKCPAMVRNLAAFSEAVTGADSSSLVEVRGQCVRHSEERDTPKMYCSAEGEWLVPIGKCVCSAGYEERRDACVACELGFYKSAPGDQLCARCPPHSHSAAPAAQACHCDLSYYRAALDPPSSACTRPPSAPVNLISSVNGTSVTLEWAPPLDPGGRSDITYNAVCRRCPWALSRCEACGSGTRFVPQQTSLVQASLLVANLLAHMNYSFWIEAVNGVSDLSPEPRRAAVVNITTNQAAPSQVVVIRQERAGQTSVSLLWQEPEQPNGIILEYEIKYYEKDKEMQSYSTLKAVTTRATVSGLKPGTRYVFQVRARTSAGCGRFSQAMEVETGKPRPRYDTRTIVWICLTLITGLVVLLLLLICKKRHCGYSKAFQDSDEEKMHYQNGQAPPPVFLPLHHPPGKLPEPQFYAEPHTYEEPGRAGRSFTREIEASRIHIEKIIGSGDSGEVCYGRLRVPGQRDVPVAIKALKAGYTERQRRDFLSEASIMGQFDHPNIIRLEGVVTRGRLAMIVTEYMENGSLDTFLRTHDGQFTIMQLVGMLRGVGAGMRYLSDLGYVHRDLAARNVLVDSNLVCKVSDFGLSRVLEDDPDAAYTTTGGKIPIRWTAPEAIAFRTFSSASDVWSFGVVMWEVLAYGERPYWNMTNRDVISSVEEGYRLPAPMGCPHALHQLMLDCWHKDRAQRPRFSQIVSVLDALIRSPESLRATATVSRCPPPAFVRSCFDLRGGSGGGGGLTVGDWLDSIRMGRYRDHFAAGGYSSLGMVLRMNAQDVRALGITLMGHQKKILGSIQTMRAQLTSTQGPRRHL
Chain of Serine/threonine-protein kinase NLK (Q9UBE8 whole entry, the tested form may be a part): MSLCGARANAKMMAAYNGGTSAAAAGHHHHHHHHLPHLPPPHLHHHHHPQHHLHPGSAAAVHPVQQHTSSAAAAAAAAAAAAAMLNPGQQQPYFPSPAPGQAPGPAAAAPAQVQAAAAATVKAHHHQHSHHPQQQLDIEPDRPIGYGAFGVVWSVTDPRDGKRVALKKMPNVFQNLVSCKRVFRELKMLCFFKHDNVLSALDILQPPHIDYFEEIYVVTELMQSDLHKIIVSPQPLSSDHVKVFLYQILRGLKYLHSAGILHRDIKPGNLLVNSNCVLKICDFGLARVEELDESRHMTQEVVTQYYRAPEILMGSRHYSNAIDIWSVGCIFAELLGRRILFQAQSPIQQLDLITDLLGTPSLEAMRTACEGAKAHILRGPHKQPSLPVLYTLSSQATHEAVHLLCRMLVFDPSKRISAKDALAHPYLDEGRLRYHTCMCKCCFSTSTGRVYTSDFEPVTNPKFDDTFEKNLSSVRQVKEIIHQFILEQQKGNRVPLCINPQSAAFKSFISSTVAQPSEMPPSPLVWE

Consider `COc1cc2nccc(Nc3cc(OC)c(OC)c(OC)c3)c2cc1OC`, for which the Kd at Ephrin type-B receptor 6 turned out to be 130 nM; in experiment [1] it was 280 nM; in experiment [2] it was 92 nM; in experiment [3], 11 nM; in [4], 190 nM; at Activin receptor type-1 it was 1300 nM. The dissociation constant (Kd) was determined as 1300 nM at Ephrin type-A receptor 1; 350 nM in experiment [5]; 170 nM in experiment [6]; 560 nM on Ephrin type-A receptor 8; 430 nM in experiment [7].
Consider `COc1cc(Nc2cc(C)nc3ccc(C(F)(F)F)cc23)cc(OC)c1OC`, for which, in experiment [3], the Kd is over 30000 nM. In addition, the IC50 in experiment [8] was over 10000 nM.
As for `COc1cc(N(C)c2ccnc3ccc(C(F)(F)F)cc23)cc(OC)c1OC`, the results for the equilibrium dissociation constant (Kd) in [3] and in [9] were 9900 nM and 480 nM, respectively. The IC50 in [8] was over 10000 nM.
For `COc1cc(Nc2ncnc3ccc(C(F)(F)F)cc23)cc(OC)c1OC`, in experiment [3], binding was put at a Kd of 130 nM.
Regarding `COc1cc(Nc2ccnc3ccc(C(F)(F)F)cc23)cc(OC)c1OC`, the Kd was determined as 1600 nM at Ephrin type-B receptor 6; 1400 nM in experiment [10]; 3100 nM on Ephrin type-A receptor 1; 1100 nM in experiment [5]; 1900 nM in [6]; 1100 nM at Ephrin type-A receptor 8. Moreover, the Kd in experiment [11] stood at 690 nM.
Take `COc1cc(Nc2ccnc3ccc(I)cc23)cc(OC)c1OC`: binding in [3] was put at a Kd of 8.6 nM.
`COc1cc(Nc2ccnc3ccccc23)cc(OC)c1OC` had a Kd in [3] of 170 nM.
Same read-out and setting: the same measure for `COc1cc(Nc2ccnc3ccc(C#N)cc23)cc(OC)c1OC`: 4.9 nM.
`COc1ccc2c(Nc3cc(OC)c(OC)c(OC)c3)ccnc2c1`: the Kd in experiment [3] stood at 35 nM. Also, the inhibition in [12] was 20%.
On to `COc1cc(Nc2ccnc3ccc(Br)cc23)cc(OC)c1OC`, for which the Kd on Ephrin type-B receptor 6 was found to be 710 nM; in [13], 260 nM; on Activin receptor type-1, 1000 nM; in [6], 1200 nM.
In experiment [3], `COc1cc(Nc2ccnc3ccc(Cl)cc23)cc(OC)c1OC` yielded a Kd of 6.3 nM.
Regarding `COc1cc(Nc2ccnc3ccc(C(C)(C)C)cc23)cc(OC)c1OC`, binding in [3] was characterised by a dissociation constant (Kd) of 34 nM.
Still for that read-out and setting: the value for `COc1ccc2nccc(Nc3cc(OC)c(OC)c(OC)c3)c2c1` was 48 nM.
